Experimental data as given in ChEMBL document CHEMBL3046482, “Facile synthesis of furoquinoline and effects on radical-induced oxidation of DNA” (Med Chem Res, 2013).
Calls of active or inactive are those of the source. No cut-off for these calls is given here.

Assays:
Assay type in all cases: functional
[1] = Antioxidant activity assessed as decrease in hydroxyl radical-induced oxidation of DNA measured TBARS production at 400 uM after 30 min by spectrophotometric analysis relative to control; parameters: scale not given: the % may be the effect or the level left
[2] = Antioxidant activity assessed as decrease in Cu2+/GSH-induced oxidation of DNA measured TBARS production at 400 uM after 90 min by spectrophotometric analysis relative to control; parameters: scale not given: the % may be the effect or the level left
[3] = Antioxidant activity assessed as decrease in AAPH-induced oxidation of DNA measured TBARS production at 100 to 400 uM after 15 min by spectrophotometric analysis
[4] = Antioxidant activity assessed as decrease in AAPH-induced oxidation of DNA measured TBARS production at 400 uM after 15 min by spectrophotometric analysis

Row | Structure (SMILES) | Activity [1] [%] | Activity [2] [%] | Activity [3] | Activity [4]
1 | Cc1c2c(nc3cc(O)ccc13)OCC2 | 95.1 | 93.5 | Active | 
2 | Cc1c2c(nc3c(O)cccc13)OCC2 | 90.8 | 92.2 |  | 
3 | Cc1c2c(nc3ccccc13)OCC2 | 95.1 | 96.6 |  | inactive
4 | Cc1c2c(nc3ccc(O)cc13)OCC2 | 88.4 | 92.9 |  | 
